According to publication PMC3867503 (PLoS ONE, 2013):
pIC50: −log10 of the molar value. Values joined by “and” are separate entries in the source; they are usually repeats but may differ in a detail not shown here. Equal entries are not always repeated. “Also recorded” adds a separate entry of the source. Where two headings read alike, the source gives them in different places. Values belong to the molecule of their own block, whether it stands above or below them.

Columns and labels:
[1] = molecular target: T1, recombinant human EYA3 (Homo sapiens, UniProt Q99504); assay: pNPP hydrolysis by EYA3 (tyrosine phosphatase enzyme assay); assay type: biochemical; conditions: for pIC50: recombinant human EYA3, substrate pNPP, read-out: IC50 (95% confidence intervals), pNPP hydrolysis by EYA3
T1 construct: a splice variant of Q99504 corresponding to isoform 2 and missing residues 1 - 126; made in house
T1 sequence (Q99504 1-447 isoform Q99504-2): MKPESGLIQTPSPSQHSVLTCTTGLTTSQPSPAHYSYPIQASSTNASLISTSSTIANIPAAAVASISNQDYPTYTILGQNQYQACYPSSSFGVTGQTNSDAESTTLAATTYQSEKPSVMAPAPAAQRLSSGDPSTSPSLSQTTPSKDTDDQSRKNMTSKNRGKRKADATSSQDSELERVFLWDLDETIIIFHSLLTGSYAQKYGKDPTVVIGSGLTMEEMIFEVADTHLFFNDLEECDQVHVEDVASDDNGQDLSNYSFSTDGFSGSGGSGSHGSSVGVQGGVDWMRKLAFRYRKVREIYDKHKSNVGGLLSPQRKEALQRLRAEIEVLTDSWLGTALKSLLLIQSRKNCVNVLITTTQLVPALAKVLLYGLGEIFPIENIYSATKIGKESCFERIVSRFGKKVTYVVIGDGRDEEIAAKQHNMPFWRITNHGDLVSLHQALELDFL
Procedure: Purification of recombinant EYA3 has been reported previously. Assays using the colorimetric substrate p-nitrophenylphosphate were conducted as previously reported.
Enzymatic assays were conducted using recombinant human EYA3 (a splice variant of Q99504 corresponding to isoform 2 and missing residues 1 - 126) purified as described. The chromogenic substrate para-nitrophenylphosphate (pNPP) was used to measure catalytic activity of EYA3. […] To assay potential EYA inhibitors, the compounds were pre-incubated with EYA3, pNPP added, and the formation of the p-nitrophenolate product measured. […] In addition, an ex vivo examination of sprouting angiogenesis was conducted using the aortic ring assay.

[2] = test system: HUVECs; assay: HUVEC proliferation / cell viability assay (WST-8); assay type: cell-based, human; conditions: for effect on cell viability / proliferation: 72 hours
Procedure: 75% confluent HUVECs (<passage 8) were washed with PBS and trypsinized, deactivated with 10% FBS, spun down and counted. 1000 cells/well were seeded in triplicate in 100 μl EGM-2 complete medium either with inhibitors (in 0.2% DMSO) or vehicle alone (0.2% DMSO). After 0 hrs, 24 hrs, 48 hrs, 72 hrs of incubation at 37°C in […] 10 μl WST-8 was added to each well and incubated for 2 hours in the dark, at 37°C, […]. Absorption was read at 450 nm. Fold change was calculated as the ratio of the OD450 at the experimental time point and at the start of the experiment (0 hours).
A cell viability assay was conducted over 3 days of exposure to the test compounds in order to assess both the possibility of immediate cellular toxicity as well as any effect on cell proliferation. HUVECs were seeded and equilibrated for 24 hours before addition of the test compounds. Cellular metabolic activity was measured at defined time-points using the tetrazolium dye WST-8 to quantify NAD(P)H-dependent cellular oxidoreductase enzyme activity.
Figure 2 Proliferation of HUVECs in the presence of 7.5 μM test compounds. Cell viability was measured at 72 hours post-seeding. Asterisk represents significant differences between groups (*** P<0.001, * P<0.05).

[3] = cited from earlier work; for half-life: as previously reported; for maximal plasma concentration: single oral dose of 100 mg
[4] = test system: HUVECs; conditions: cited from earlier work
[5] = molecular target: T1, recombinant human EYA3; conditions: recombinant EYA3, substrate pNPP; reported previously; read-out: IC50 (95% confidence intervals), pNPP hydrolysis by EYA3; cited from earlier work
[6] = test system: HUVECs; assay: Scratch wound healing (cell migration) assay; assay type: cell-based, human
Procedure: 10^5 HUVECs/well were seeded on 24-well plates and cultured until they reached confluency in EGM-2. The monolayers were then scratch-wounded using a 200 μl pipette tip, washed with PBS, and incubated with EGM-2 complete medium and either EYA Inhibitors or vehicle control (0.2% DMSO). Wounds were photographed immediately upon insult, and at various time-points following wounding using a phase-contrast microscope. The number of cells that migrated into the cleared area was counted using the Cell Counter function of ImageJ [20].
The effect of the test compounds on cell migration was assessed using a scratch wound healing assay and HUVEC cells. Cells were plated and grown to confluency. Scratch wounds were made using a sterile pipette tip, the medium changed to remove any cellular debris, and fresh medium with either vehicle or test compound was introduced. The number of cells that migrated into the cleared space was counted 22 hours later. […] Previous experiments had shown a role for EYA3 in trans-well migration of HUVECs. […] Lentiviral shRNA targeting EYA3 in HUVECs led to greater than 80% reduction in EYA3 protein levels (Figure 4A).
Figure 3 Lateral migration of HUVECs in the presence of test compounds. […] (B) Number of cells that migrate into the wounded area was counted using the Cell Counter functionality of ImageJ. […]

[7] = test system: HUVECs; assay: Tubulogenesis assay on growth-factor reduced Matrigel; assay type: cell-based, human
Procedure: Growth factor reduced Matrigel was thawed overnight on ice at 4°C. 40 μl Matrigel was added to each well of a 96-well plate and incubated for 30 mins to polymerize. 10,000 cells in 100 μl EGM-2 complete medium with either inhibitors or vehicle control (0.2% DMSO) were added to each well. Plates were incubated for 24 hours at 37°C, 5% CO2 and then photographed at 5X magnification. Tube length was measured using the NeuronJ plugin [21] for the NIH ImageJ software.
Primary endothelial cells (ECs) on basement membrane rapidly attach, align themselves and form capillary-like tubules with lumens and tight cell-cell contacts. […] To better understand the stage in matrigel tube-formation affected by 6OH-BBR we followed cells plated on growth-factor reduced matrigel and treated with either vehicle or 6OH-BBR (Figure 5C). Differences become apparent within the first two hours and are clearly visible at the 6-hour time-point. The ECs are much less organized in the presence of 6OH-BBR.
(A) Representative phase-contrast images of HUVECs plated on growth-factor reduced Matrigel in the presence of the indicated doses of test compounds, photographed 16 hours after plating. (B) Quantitation of the number of tube-like structures formed by HUVECs in the presence of test compounds. The number of tubes was measured using NeuronJ. […]

[8] = test system: aortic ring explants from C57BL/6 mice; assay: Aortic ring sprouting assay (ex vivo); conditions: mouse aortic rings in collagen, initially 7.5 μM, 10-day treatment
Procedure: The preparation of rat collagen and the aortic ring assay were carried out as previously described. Briefly, aortic ring explants were obtained from C57BL/6 mice aged 4 to 6 weeks and cultured at 37°C in a humidified incubator under a 5% CO2 atmosphere in serum-free EBM. Within 30 minutes of dissection the rings were placed in a 3D collagen matrix supported by a UV-sterilized nylon mesh ring with inner and outer diameters of 3 mm and 5.6 mm, respectively. The matrix was prepared by mixing 8 parts of collagen solution, 1 part of 10x M199 and 1 part of 23.4mg/ml NaHCO3. After another 30 min incubation at 37°C, the assembly was transferred into a well of 96-well plate filled with 150 μl of culture medium; either control medium consisting of 0.1% DMSO in EBM, 2.5% FBS, penicillin/streptomycin and 20ng/ml VEGF165 or the test inhibitor dissolved in the control medium. Each compound was applied over a 10-day period with medium changes every two days. […]
This assay allows for analysis of cell proliferation, migration, tube formation, micro-vessel branching, and perivascular recruitment. […] All the test compounds were initially assayed at 7.5 μM and the number of branch-points counted. […]
Figure 6 Effect of test compounds on aortic ring sprouting. […] (B) Quantitation of the number of sprouts per ring with each bar representing at least 4 rings. *** P<0.001, ** P<0.01, * P<0.05, ns not significant).

[9] = parameters: method as in PMID 22398967; conditions: cited from earlier work

Compound: CC(O)c1oc2ccccc2c1C(=O)c1cc(Br)c(O)c(Br)c1 (centres unmarked) [1’OH-BBR, 1’-hydroxybenzbromarone]
pIC50 [1]: 4.28

Compound: CCc1oc2ccccc2c1C(=O)c1cc(Br)c(O)c(Br)c1 [BBR, Benzbromarone]
effect on cell viability / proliferation ([2]; 7.5 μM test compound): reduced cell viability; also recorded: significant inhibition of cell proliferation | half-life [3]: 3 h | maximal plasma concentration ([3]; rapid eliminators): 3.9 μg/ml and ~ 9.2 μM | maximal plasma concentration ([3]; slow eliminator): 9.17 μg/ml and ~ 21.8 μM | effect on proliferation of HUVECs in the first 24 hours [4]: does not influence proliferation

Compound: CCc1oc2ccccc2c1C(=O)c1ccc(O)cc1 [BZ, Benzarone, reference compound]
pIC50 [5]: 4.76 | effect on cell viability / proliferation ([2]; 7.5 μM test compound): reduced cell viability; also recorded: significant inhibition of cell proliferation | effect on proliferation of HUVECs in the first 24 hours [4]: does not influence proliferation

Compound: CCc1oc2ccc(O)cc2c1C(=O)c1cc(Br)c(O)c(Br)c1 [Compound 5OH-BBR, 5-hydroxy benzbromaorne]
pIC50 [1]: 4.31

Compound: CCc1oc2ccc(O)cc2c1C(=O)c1ccc(O)cc1 [Compound 5OH-BZ]
pIC50 [1]: < 3.82

Compound: Cc1oc2ccccc2c1C(=O)c1ccc(O)cc1 [DMBZ]
pIC50 [1]: 3.87

Further molecules by rising pIC50 [1], results first:

IC50 relative to BBR ([1]; EYA3 inhibition in vitro): over twice | pIC50 [1]: 4.67
Compound: CCc1oc2cc(O)ccc2c1C(=O)c1cc(Br)c(O)c(Br)c1 [Compound 6OH-BBR, 6-hydroxybenzbromarone]
reduction of cell migration ([6]; 7.5 μM test compound, 22 hours after wounding): ~80% | reduction in cell proliferation ([2]; 7.5 μM test compound, 72 hours post-seeding): over 50% | effect on cell proliferation at the 24-hour time-point ([2]; 24 hours): attenuated cell proliferation | inhibition of tube formation (in words) [7]: much stronger inhibitory effect than BZ | attenuation of aortic ring sprouting (in words) [8]: most potent inhibitor | half-life [3]: 30 h

pIC50 [1]: 4.69
Compound: Cc1oc2ccccc2c1C(=O)c1ccc(O)c(I)c1 [DIBZI]
effect on cell viability / proliferation ([2]; 7.5 μM test compound): small but significant positive effect on cell proliferation

pIC50 [1]: 4.79
Compound: CC(O)CCc1oc2ccccc2c1C(=O)c1cc(I)c(O)c(I)c1 (centres unmarked) [OH-ODAA]

pIC50 [1]: 5.05
Compound: Cc1oc2ccccc2c1C(=O)c1cc(I)c(O)c(I)c1 [BZI]

pIC50 [1]: 5.51
Compound: CCCCc1oc2ccccc2c1C(=O)c1cc(I)c(O)c(I)c1 [ODAA]
inhibition of cell migration (in words) [6]: relatively weak inhibitor | fraction bound to plasma protein [9]: ~ 99.9% | effect on cell viability / proliferation ([2]; 7.5 μM test compound): small but significant positive effect on cell proliferation | inhibition of tube formation (in words) [7]: relatively weak inhibitor
